We go through four compounds from patent US20070179120A1, “HYDROXYL COMPOUNDS AND COMPOSITIONS FOR CHOLESTEROL MANAGEMENT AND RELATED USES” (ESPERION THERAPEUTICS, INC., priority 2003, published 2007).

As a reminder, the melting point is the temperature of the solid-liquid transition. Compound `CC(C)(CO)CCCCCC(O)CCCCC(C)(C)CO` (stereo not shown) [Compound 6.27, 2,2,13,13-Tetramethyltetradecane-1,7,14-triol] had a melting point of 79 to 80 °C.
`CC(C)(CO)CCCCC(O)CCCCC(C)(C)CO` [Compound 6.1, 2,2,12,12-Tetramethyltridecane-1,7,13-triol] yielded a melting point of 72 to 74 °C.
With `CC(C)(CO)CCCCCC(O)CCCCCC(C)(C)CO` [Compound 6.17, 2,2,14,14-Tetramethylpentadecane-1,8,15-triol] the figure was 71 to 75 °C; with `CC(C)(CO)CCCCC(CCCCC(C)(C)CO)C(C)(C)O` [Compound 6.12, 7-(1-Hydroxy-1-methylethyl)-2,2,12,12-tetramethyltridecane-1,13-diol], 72 to 74 °C.
